# Laboratory results taken from US20260008784A1 (VASTHERA CO., LTD., priority 2022, published 2026).
# Tests used:
# [1] = test system: yeast thioredoxin (Trx)/yeast Trx reductase (TR); experiment: Peroxidase activity assay (H2O2 reduction, NADPH oxidation); type: biochemical; settings: 50 μM test compound, 3 μM yeast Trx, 1.5 μM yeast TR, 250 μM NADPH, 1.2 mM H2O2, 30° C.; NADPH oxidized per minute
# Description: Hydrogen peroxide (H2O2)-reducing peroxidase activity of compounds in present invention was performed as follows. Peroxyredoxin activity was measured in reaction mixture (200 μL volume) containing 50 mM HEPES buffer (pH 7.0), 1 mM EDTA, 250 μM NADPH, 3 μM yeast thioredoxin (Trx), 1.5 μM yeast Trx reductase (TR), 50 μM test compound, and 1.2 mM H2O2.
# Reaction was initiated by adding H2O2 and the decrease in absorbance at 340 nm was measured using Agilent UV8453 spectrophotometry (Hewlett Packard, USA) at 30° C. for 12 min. Initial reaction rate is the amount of NADPH oxidized per minute calculated from slope of the linear part of curve.
# The H2O2-reducing peroxidase activity of the test compounds in present invention was measured in a reaction mixture containing thioredoxin (Trx)/thioredoxin reductase (TR), respectively.
# [2] = Measurement of redox potential (DTT redox buffers, HPLC); type: physicochemical; settings: DTT(Red)/DTT(Ox) redox buffers, 3 h, 30° C., 50% reduction of test compound
# Description: A test compound (10 mM) was diluted 20-fold with each redox buffer solution and incubated for 3 h in a 30° C. water bath. Then, compounds were analyzed by HPLC. The area of peaks corresponding to the oxidized and reduced forms of test compound based on specific retention time was calculated and plotted as percent of total peak area against the Nernst equation value (mV) at x-axis. The Nernst equation value corresponding to 50% reduction of test compound was set as the midpoint redox potential value for test compound.
# The redox potential values of the test compounds were analyzed based on the potential values established in redox buffer solutions where reduced and oxidized DTT are mixed at various ratios.
# [3] = test system: Tyr 1175 phosphorylation of VEGF receptor-2 (VEGFR2) in HAEC; experiment: Immunoblot of VEGF-mediated signaling in PrxII knock-down HAEC; type: cell-based, human; settings: HAECs depleted of PrxII expression, FIG. 5
# Description: (§1) Cells were quickly washed in ice-cold phosphate-buffered saline (PBS) and lysed in extraction buffer containing 20 mM Hepes (pH 7.0), 1% Triton X-100, 150 mM NaCl, 10% glycerol, 1 mM EDTA, 2 mM EGTA, and 1 mM DTT, 5 mM Na3VO4, 5 mM NaF, 1 mM AEBSF, aprotinin (5 μg/mL), and leupeptin (5 μg/mL). After cen-trifugation at 12,000×g, the clarified cell extracts were used for immunoblotting. For re-blotting, the immunoblots were retrieved in a solution of 67 mM Tris (pH 6.7), 2% SDS, and 100 mM 2-mercaptoethanol at 60° C. for 30 min to remove antibodies and rinsed three times with a Tris-buffered saline (TBS) solution containing 1% Triton X-100. The retrieved membranes were subjected to new immunoblotting.
# In human aortic endothelial cell (HAEC) and human pulmonary artery endothelial cell (PAEC) in which PrxII was knocked out by transfecting the PrxII siRNA, the ability of test compounds to replace the cellular function of PrxII was evaluated. That is, the efficacy of the new compounds was verified in terms of signaling pathways induced by VEGF that regulates the growth and migration of vascular endothelial cells in the aorta and pulmonary artery. Activation of VEGF-induced signaling pathway was analyzed by an immunoblot method using an antibody that specifically recognizes phosphorylation of Tyr 1175, which is a major phosphorylation site on VEGF receptor-2 (VEGFR2).
# [4] = test system: human aortic endothelial cell (HAEC); experiment: VEGF-induced proliferation assay, HAEC (PrxII siRNA); type: cell-based; settings: for Degree of HAEC proliferation: VEGF-A 25 ng/mL, percent of untreated control
# Description: (§2) HAECs and PAECs were transfected with a PrxII-specific siRNA using RNAi MAX transfection reagent according to manufacturer's protocol. After 24 hours, transfected cells (3,000 cells/well) were seeded in a 96-well culture plate. At 12 h after seeding, cells were serum-starved for additional 18 h in EBM basal medium containing 0.5% FBS. Test compounds were serially diluted with the same basal medium containing 0.5% FBS, added to the cells ([…]), and incubated for 2 h. After treatment, cells were placed in fresh EBM medium containing 0.5% FBS and VEGF-A (25 ng/mL) for growth factor stimulation and further cultured for 24 h.
# (§3) The degree of cell proliferation was measured using the Cell Titer-GLO kit ([…]). Data are the percent of luminescence intensity averaged from three replicate wells versus that of untreated control group.
# In human aortic endothelial cell (HAEC) and human pulmonary artery endothelial cell (PAEC) in which PrxII was knocked out by transfecting the PrxII siRNA, the ability of test compounds to augment the VEGF-induced proliferation of vascular endothelial cells was evaluated. In Table 7, the degree of proliferation in the compound-treated groups is expressed as percent of the degree of proliferation in untreated control group. The effective concentrations of test compounds increasing cell proliferation by 50% (EC50) is also listed.
# [5] = test system: Tyr 857 phosphorylation of PDGF receptor-β (PDGFRβ) in HASMC; experiment: Immunoblot of PDGF-mediated signaling in PrxII knock-down HASMC; type: cell-based, human; settings: HASMC depleted of PrxII expression, FIG. 2
# Description: as §1
# In human aortic smooth muscle cell (HASMC) and human pulmonary artery smooth muscle cell (PASMC) in which PrxII was knocked out by transfecting the PrxII siRNA, the ability of test compounds to replace the cellular function of PrxII was evaluated. That is, the efficacy of the new compounds was verified in terms of signaling pathways induced by PDGF that regulates the growth and migration of vascular smooth muscle cells in the aorta and pulmonary artery. Activation of PDGF-induced signaling pathway was analyzed by an immunoblot method using an antibody that specifically recognizes phosphorylation of Tyr 857, which is a major phosphorylation site on PDGF receptor (PDGFRβ).
# [6] = test system: human aortic smooth muscle cell (HASMC); experiment: PDGF-induced proliferation assay, HASMC (PrxII siRNA); type: cell-based; settings: for Degree of HASMC proliferation: PDGF-BB 25 ng/mL, percent of untreated control
# Description: as §2, with “HASMCs” for “HAECs”, “PASMCs” for “PAECs”, “SmBM” for “EBM”, “PDGF-BB” for “VEGF-A”
# as §3
# (§4) In human aortic smooth muscle cell (HASMC) and human pulmonary artery smooth muscle cell (PASMC) in which PrxII was knocked out by transfecting the PrxII siRNA, the ability of test compounds to inhibit the PDGF-induced proliferation of vascular smooth muscle cells was evaluated. In Table 6, the degree of proliferation in the compound-treated groups is expressed as percent of the degree of proliferation in untreated control group. The concentrations of test compounds corresponding to 50% growth inhibition (IC50) is also listed.
# [7] = test system: human pulmonary artery smooth muscle cell (PASMC); experiment: PDGF-induced proliferation assay, PASMC (PrxII siRNA); type: cell-based; settings: for Degree of PASMC proliferation: PDGF-BB 25 ng/mL, percent of untreated control
# Description: as §2, with “HASMCs” for “HAECs”, “PASMCs” for “PAECs”, “SmBM” for “EBM”, “PDGF-BB” for “VEGF-A”
# as §3, §4
# Description for in vitro: Cytotoxicity tests were performed against vascular endothelial cells, vascular smooth muscle cells and hepatocytes. After treatment with ascending concentrations of each compound, the concentration of test compound corresponding to 50% cell viability (CC50) was measured.
molecule,measurement,setting,value
"6-benzyl-1,4,8-trimethyl-2,3-dithia-6,8-diazabicyclo[3.2.2]nonane-7,9-dione [Compound 25]",Peroxidase activity for H2O2 reduction,[1],4.51 nmol/min
"COc1cc(CN2C(=O)C3(C)SSCC2C(=O)N3C)cc(OC)c1OC (centres unmarked) [Compound 3, 1,8-dimethyl-6-(3,4,5-trimethoxybenzyl)-2,3-dithia-6,8-diazabicyclo[3.2.2]nonane-7,9-dione]",CC50,in vitro,82.6 µM
same,Peroxidase activity for H2O2 reduction,[1],4.11 nmol/min
same,Midpoint redox potential (E m),[2],−296 mV
CN1C(=O)C2CSSC1(C)C(=O)N2Cc1ccc(F)cc1F (centres unmarked) [Compound 4],CC50,in vitro,98 µM
same,Peroxidase activity for H2O2 reduction,[1],3.82 nmol/min
same,Midpoint redox potential (E m),[2],−292.74 mV
"O=C1C2CSSC3(COCCN13)C(=O)N2Cc1ccncc1 (centres unmarked) [Compound 9, 12-(pyridin-4-ylmethyl)tetrahydro-5H,10H-4,10a-(epiminomethano)[1,4]oxazino[3,4-c][1,2,4]dithiazepin-5,11-dione]",Peroxidase activity for H2O2 reduction,[1],5.19 nmol/min
"CCN1C(=O)C23COCCN2C(=O)C1CSS3 (centres unmarked) [Compound 10, 12-ethyltetrahydro-5H,10H-4,10a-(epiminomethano)[1,4]oxazino[3,4-c][1,2,4]dithiaze pine-5,11-dione]",Effect on phosphorylation of Tyr 1175 on VEGFR2,[3],strongly abolish the phosphorylation
same,Degree of HAEC proliferation,[4]; 2.5 nM,111.6%
same,Degree of HAEC proliferation,[4]; 5 nM,122.8%
same,Degree of HAEC proliferation,[4]; 10 nM,127.6%
same,Degree of HAEC proliferation,[4]; 25 nM,140.7%
same,Degree of HAEC proliferation,[4]; 50 nM,175.1%
same,Degree of HAEC proliferation,[4]; 100 nM,159.0%
same,EC50,"[4]; Homo sapiens, Endothelial cell, effective concentration increasing cell proliferation by 50%, VEGF-stimulated",0.0193 µM
same,Peroxidase activity for H2O2 reduction,[1],5.06 nmol/min
same,Effect on phosphorylation of Tyr 857 on PDGFR,[5],strongly abolish the phosphorylation
same,Degree of HASMC proliferation,[6]; 2.5 nM,75.5%
same,Degree of HASMC proliferation,[6]; 5 nM,53.8%
same,Degree of HASMC proliferation,[6]; 10 nM,31.1%
same,Degree of HASMC proliferation,[6]; 25 nM,4.6%
same,IC50,"[6]; Homo sapiens, HASMC, 50% growth inhibition, PDGF-stimulated",0.00548 µM
same,Degree of PASMC proliferation,[7]; 2.5 nM,90.5%
same,Degree of PASMC proliferation,[7]; 5 nM,54.1%
same,Degree of PASMC proliferation,[7]; 10 nM,44.1%
same,Degree of PASMC proliferation,[7]; 25 nM,21.9%
same,Degree of PASMC proliferation,[7]; 50 nM,17.5%
same,Degree of PASMC proliferation,[7]; 100 nM,7.0%
same,IC50,"[7]; Homo sapiens, PASMC, 50% growth inhibition, PDGF-stimulated",0.00828 µM
same,Midpoint redox potential (E m),[2],−268.53 mV
"O=C1C2CSSC3(CCCN13)C(=O)N2Cc1ccncc1 (centres unmarked) [Compound 11, 11-(pyridin-4-ylmethyl)tetrahydro-5H,7H-4,9a-(epiminomethano)pyrrolo[2,1-c][1,2,4]dithiazepine-5,10-dione]",Peroxidase activity for H2O2 reduction,[1],4.57 nmol/min
"CN1C(=O)C2(C)SSCC1C(=O)N2Cc1ncccn1 (centres unmarked) [Compound 16, 1,6-dimethyl-8-(pyrimidin-2-ylmethyl)-2,3-dithia-6,8-diazabicyclo[3.2.2]nonane-7,9-d ione]",Peroxidase activity for H2O2 reduction,[1],4.93 nmol/min
"CN1C(=O)C2(C)SSCC1C(=O)N2Cc1cn(C)cn1 (centres unmarked) [Compound 17, 1,6-dimethyl-8-((1-methyl-1H-imidazol-4-yl)methyl)-2,3-dithia-6,8-diazabicyclo[3.2.2]nonane-7,9-dione]",Peroxidase activity for H2O2 reduction,[1],4.80 nmol/min
"COC(=O)c1ccc(CN2C(=O)C3CSSC2(C)C(=O)N3C)cc1 (centres unmarked) [Compound 18, Methyl 4-((1,6-dimethyl-7,9-dioxo-2,3-dithia-6,8-diazabicyclo[3.2.2]nonan-8-yl)methyl)benzo ate]",Peroxidase activity for H2O2 reduction,[1],4.91 nmol/min
CN1CCN2C(=O)C3CSSC2(C1)C(=O)N3Cc1ccncc1 (centres unmarked) [Compound 22],Peroxidase activity for H2O2 reduction,[1],7.97 nmol/min
same,Effect on phosphorylation of Tyr 857 on PDGFR,[5],strongly abolish the phosphorylation
"CC1SSC2(C)C(=O)N(Cc3ccccc3)C1C(=O)N2C (centres unmarked) [Compound 24, 6-benzyl-1,4,8-trimethyl-2,3-dithia-6,8-diazabicyclo[3.2.2]nonane-7,9-dione]",Peroxidase activity for H2O2 reduction,[1],4.26 nmol/min
